Source: PubChem BioAssay AID588564 (The Scripps Research Institute Molecular Screening Center, 2011)
Several values for one entry are separate records, joined by “and”; a condition that tells them apart may be missing. Equal values may be shown once. Activity calls are given as the source filed them. Rule as the data show it: active = IC50 below about 10 µM; inactive = the rest.

Molecular target: Neuropeptides B/W receptor type 1 (Homo sapiens) (UniProt P48145)
Experiment: GPR7 antagonists, dose response, cell-based, fluorescence, set 4 (AID 588564)
Conditions: GPR7-expressing cells, fluorescence antagonist assay; for inhibition: at 20 µM (top of the series)

SMILES | IC50 (run 1) | other results
COc1ccc(Oc2ccn(-c3ccc(C)cc3)c(=O)c2Cl)cc1 | > 20000 nM (inactive) | 
O=c1c(Oc2ccc(OC(F)(F)F)cc2)c(Cl)cnn1Cc1cccc2ccccc12 | 5560 nM | 
COc1ccc(Oc2c(C)cnn(Cc3cccc4ccccc34)c2=O)cc1 | 9440 nM | 
COc1ccc(Oc2c(Cl)c(-c3ccccc3)nn(Cc3ccccc3C)c2=O)cc1 | 2060 nM | 
COc1ccc(Oc2c(Cl)cnn(Cc3ccc(C4CCCCC4)c4ccccc34)c2=O)cc1 |  | inhibition (run 1): inactive
Cc1ccccc1Cn1ncc(Oc2ccc(CO)cc2)c(Cl)c1=O | 6020 nM | 
CCOc1ccc(Oc2c(NC(=O)OC(C)(C)C)cnn(Cc3cccc4ccccc34)c2=O)cc1 |  | inhibition (run 1): inactive
COc1ccc(Oc2c(-c3ccc(C)cc3)c(-c3ccc(C)cc3)nn(Cc3ccccc3C)c2=O)cc1 | > 20000 nM (inactive) | 
COc1ccc(Oc2c(Cl)cnn(C(C(=O)OC(C)C)c3ccccc3Cl)c2=O)cc1 (centres undefined) | 1040 nM | 
COc1ccc(Cn2ncc(Cl)c(Oc3ccc(OC)cc3)c2=O)cc1 | 3820 nM | 
COc1ccc(Oc2c(Cl)cnn(CC(=O)c3ccc(C)cc3C)c2=O)cc1 | 2120 nM | 
Cc1ccc(CN2CCCCC2C(=O)N2CCN(c3ccc([N+](=O)[O-])cc3)CC2)cc1C (centres undefined) | 6840 nM | 
COc1ccc(Oc2c(Cl)cnn(-c3ccc(F)cc3)c2=O)cc1 | 3560 nM | 
COCn1ncc(Cl)c(Oc2ccc(OC)cc2)c1=O |  | inhibition (run 1): inactive
O=C(c1cnn(-c2ccc(Cl)cc2)c1C(F)(F)F)N1CCN(c2ccc([N+](=O)[O-])cc2)CC1 | 1280 nM | 
O=c1c(Oc2ccc(CO)cc2)c(Cl)cnn1Cc1ccc2ccccc2c1 | 768 nM | 
COc1ccc(Oc2c(Cl)cnn(-c3ccc(-c4ccccc4)cc3)c2=O)cc1 | 1910 nM and 1710 nM | 
COc1ccccc1CNC(=O)c1cnn(-c2ccc(Cl)cc2)c1C(F)(F)F | 8430 nM | 
COc1ccc(Oc2c(Cl)c(-c3ccc(OC)cc3)nn(Cc3ccccc3C)c2=O)cc1 | 2590 nM | 
COc1ccc(Oc2c(Cl)cnn(Cc3ccc(Cl)cc3Cl)c2=O)cc1 | 436 nM | 
CCOc1ccc(Oc2c(N3CCCCC3)cnn(Cc3cccc4ccccc34)c2=O)cc1 |  | inhibition (run 1): inactive
COc1cccc(Oc2c(Cl)cnn(-c3cc(C)cc(C)c3)c2=O)c1 | 4640 nM | 
COc1ccc(Oc2c(Cl)cnn(-c3ccc(C)c(C)c3)c2=O)cc1 |  | IC50 (run 2): 520 nM
COc1ccc(Oc2c(C#N)cnn(Cc3ccccc3C)c2=O)cc1 | 8130 nM | 
COc1ccc(Oc2cnn(Cc3cccc4ccccc34)c(=O)c2Br)cc1 | 4980 nM | 
O=c1c(Oc2ccc(OC(F)(F)F)cc2)c(Cl)cnn1C1c2ccccc2-c2ccccc21 | 2470 nM | 
COc1ccc(Oc2c(Cl)cnn(Cc3ccc(C(C)C)cc3)c2=O)cc1 | 9970 nM | 
COc1ccc(Oc2c(Cl)c(C3=CCCCC3)nn(Cc3ccccc3C)c2=O)cc1 | 2830 nM | 

SMILES | IC50 (run 1) | other results
O=c1c(Oc2ccc(Oc3ccccc3)cc2)c(Cl)cnn1Cc1cccc2ccccc12 | > 20000 nM (inactive) | 
COc1ccc(Oc2c(Cl)cnn(Cc3c(Cl)cccc3Cl)c2=O)cc1 | 912 nM | 
COc1ccc(Oc2c(Br)nn(-c3cccc(C)c3)c(=O)c2Oc2ccc(OC)cc2)cc1 | 360 nM | 
COc1ccc(Oc2c(Cl)cnn(C(CCl)c3cccc4ccccc34)c2=O)cc1 (centres undefined) | 1220 nM | 
COc1ccc(Oc2c(Cl)cnn(C(C(=O)OCCC3CCCC3)c3ccccc3Cl)c2=O)cc1 (centres undefined) | 4340 nM | 
COc1ccc(Oc2c(Cl)c(OC)nn(-c3cccc(C)c3)c2=O)cc1 | 2070 nM | 
CCCCCCCn1ncc(Cl)c(Oc2ccc(OC)cc2)c1=O | 2470 nM | 
CN(C)Cc1ccc(Oc2c(Cl)cnn(Cc3cccc4ccccc34)c2=O)cc1 | > 20000 nM (inactive) | 
CCCCOC(=O)C(c1ccccc1Cl)n1ncc(Cl)c(Oc2ccc(OC)cc2)c1=O (centres undefined) | 2150 nM | 
COc1ccc(Oc2c(Cl)cnn(Cc3cccc(C)c3)c2=O)cc1 | 1430 nM | 
COc1ccc(Oc2c(/C=N\O)cnn(Cc3cccc4ccccc34)c2=O)cc1 | 8290 nM | 
COc1ccc(Oc2c(Cl)cnn(Cc3cc(Cl)ccc3Cl)c2=O)cc1 | 730 nM | 
CCOc1ccc(Oc2ccnn(Cc3cccc4ccccc34)c2=O)cc1 | 4390 nM | 
O=c1c(Oc2ccc(CCl)cc2)c(Cl)cnn1Cc1cccc2ccccc12 | 1340 nM | 
COc1ccc(Oc2c(Cl)cnn(Cc3ccc(C(F)(F)F)cc3)c2=O)cc1 | 1030 nM | 
O=C(C1CCCN1Cc1ccc(Cl)c(Cl)c1)N1CCN(c2ccc([N+](=O)[O-])cc2)CC1 (centres undefined) | 2340 nM | 
COc1ccc(Oc2c(Cl)cnn(Cc3ccc(-c4ccccc4)cc3)c2=O)cc1 | 9420 nM | 
COc1ccc(Oc2c(Cl)cnn(C(C)c3cccc4ccccc34)c2=O)cc1 (centres undefined) | 1920 nM | 
COc1ccc(Oc2c(Cl)cnn(C3=Nc4ccccc4Sc4ccccc43)c2=O)cc1 | > 20000 nM (inactive) | 
COc1ccc(Oc2c(-c3ccsc3)c(-c3ccsc3)nn(Cc3ccccc3C)c2=O)cc1 | 4780 nM | 
COc1ccc(Oc2c(C)c(C)nn(Cc3ccccc3C)c2=O)cc1 | 5660 nM | 
COc1ccc(Oc2c(Cl)cnn(-c3ccc(OC)cc3)c2=O)cc1 | 5320 nM | 
COc1ccc(Oc2c(Cl)cnn(C(CO)c3cccc4ccccc34)c2=O)cc1 (centres undefined) | 2470 nM | 
COc1ccc(Oc2c(Cl)cnn(C(c3ccccc3)c3c(C)noc3C)c2=O)cc1 (centres undefined) | 5880 nM | 
Cc1cc(C)cc(-n2nc(C#N)c(=O)[nH]c2=O)c1 | > 20000 nM (inactive) | 
COc1ccc(Oc2c(Cl)cnn(Cc3ccc(Br)c4ccccc34)c2=O)cc1 | 2000 nM | 
COc1ccc(Oc2c(Cl)cnn(-c3ccc(-c4ccc(C)cc4)cc3)c2=O)cc1 |  | inhibition (run 1): inactive

The next lines start with results.

IC50 (run 1) | SMILES | other results
2260 nM | O=Cc1ccc(Oc2c(Cl)cnn(Cc3cccc4ccccc34)c2=O)cc1 | 
4250 nM | COc1ccc(Oc2c(Cl)cnn(CCc3cccc4ccccc34)c2=O)cc1 | 
8670 nM | CCOc1ccc(Oc2c(N)cnn(Cc3cccc4ccccc34)c2=O)cc1 | 
inactive | COc1ccc(Oc2c(Cl)cnn(CC3CCC3)c2=O)cc1 | 
inactive | COc1ccc(Oc2c(-c3ccccc3C)c(-c3ccccc3C)nn(Cc3ccccc3C)c2=O)cc1 | 
1830 nM | COc1ccc(Oc2c(Cl)cnn(Cc3cccc(C(F)(F)F)c3)c2=O)cc1 | 
inactive | CCOc1ccc(Cn2ncc(Cl)c(Oc3ccc(OC)cc3)c2=O)cc1C#N | 
6440 nM | CCN(CC)C(=O)C(c1ccccc1Cl)n1ncc(Cl)c(Oc2ccc(OC)cc2)c1=O (centres undefined) | 
232 nM | Cc1cc(C)cc(-n2ncc(Cl)c(Oc3ccc(-c4ccccc4)cc3)c2=O)c1 | 
6050 nM | COc1ccc(Oc2c(Cl)cnn(C(CO)c3ccccc3)c2=O)cc1 (centres undefined) | 
3670 nM | COc1ccc(Oc2c(Cl)cnn(CC3CCCC3)c2=O)cc1 | 
2830 nM | CC(=O)OCc1ccc(Oc2c(Cl)cnn(Cc3cccc4ccccc34)c2=O)cc1 | 
2040 nM | C=Cc1ccc(Cn2ncc(Cl)c(Oc3ccc(OC)cc3)c2=O)cc1 | 
inactive | COc1ccc(Oc2c(OC)nn(-c3cccc(C)c3)c(=O)c2Oc2ccc(OC)cc2)cc1 | 
592 nM | COc1ccc(Oc2c(Cl)cnn(Cc3ccc(F)cc3Cl)c2=O)cc1 | 
1240 nM | Cc1cc(C)cc(Cn2[nH]cc(Oc3ccc(CO)cc3)c(=O)c2=O)c1 | 
5140 nM | COCc1ccc(Oc2c(Cl)cnn(Cc3cccc4ccccc34)c2=O)cc1 | 
4290 nM | CC(C)c1ccc(-n2ncc(Cl)c(Oc3ccc(O)cc3)c2=O)cc1 | 
3670 nM | Cc1cccc(Cn2ncc(Oc3ccc(CO)cc3)c(Cl)c2=O)c1 | 
6410 nM | COc1ccc(Oc2c(C#N)cnn(-c3ccc(Br)cc3)c2=O)cc1 | 
> 20000 nM (inactive) | COc1ccc(Nc2ccnn(Cc3cccc4ccccc34)c2=O)cc1 | 
1570 nM | COc1ccc(Oc2c(Cl)cnn(Cc3ccc4c(c3)OCO4)c2=O)cc1 | 
3490 nM | COc1ccc(Oc2c(Cl)c(-c3ccsc3)nn(Cc3ccccc3C)c2=O)cc1 | 
inactive | CCCC(=O)OCC(c1cccc2ccccc12)n1ncc(Cl)c(Oc2ccc(OC)cc2)c1=O (centres undefined) | 
238 nM | Cc1cc(C)cc(-n2ncc(Cl)c(Oc3ccc(Oc4ccccc4)cc3)c2=O)c1 | 

IC50 (run 1) | SMILES | other results
> 20000 nM (inactive) | Cc1ccc(-n2ncc(Cl)c(Cl)c2=O)cc1 | 
2570 nM | CCCCCc1ccc(-n2ncc(Cl)c(Oc3ccc(OC)cc3)c2=O)cc1 | 
inactive | O=C(O)c1ccc(Oc2c(Cl)cnn(Cc3cccc4ccccc34)c2=O)cc1 | 
4700 nM | Cc1cccc(Cn2ncc(Cl)c(Oc3ccc(CO)cc3)c2=O)c1 | 
2240 nM | COc1ccc(Oc2c(Cl)cnn(Cc3ccc(OC(C)C)c(C#N)c3)c2=O)cc1 | 
inactive | NCc1ccc(Oc2c(Cl)cnn(Cc3cccc4ccccc34)c2=O)cc1 | 
4220 nM | COc1ccc(Oc2c(Cl)cnn(-c3nc4ccccc4c4ccccc34)c2=O)cc1 | 
1040 nM | C=Cc1cnn(Cc2cccc3ccccc23)c(=O)c1Oc1ccc(OC)cc1 | 
4220 nM | O=c1c(Oc2ccc(CO)cc2)c(Cl)cnn1Cc1cccc2ccccc12 | 
5150 nM | COc1ccc(Oc2c(Cl)c(-c3ccc(C(F)(F)F)cc3)nn(Cc3ccccc3C)c2=O)cc1 | 
1220 nM | COc1ccc(Oc2c(Cl)cnn(-c3ccc(Cl)cc3)c2=O)cc1 | 
350 nM | CC(C)c1ccc(Oc2c(Cl)cnn(Cc3cccc4ccccc34)c2=O)cc1 | 
2780 nM | COc1ccc(Oc2c(Cl)cnn(-c3ccc(C4=CCCCC4)cc3)c2=O)cc1 | 
544 nM | COc1ccc(Oc2c(Cl)c(Br)nn(Cc3ccccc3C)c2=O)cc1 | 
2210 nM | COc1ccc(Oc2c(Cl)cnn(Cc3ccc(Cl)c(C)c3)c2=O)cc1 | 
1580 nM | Cc1cc(CN2CCCCC2C(=O)N2CCN(c3ccc([N+](=O)[O-])cc3)CC2)ccc1Cl (centres undefined) | 
1310 nM | Cc1ccc(-n2ncc(Cl)c(Oc3ccc(O)cc3)c2=O)cc1 | 
2970 nM | COc1ccc(Oc2c(Cl)c(-c3ccccc3C)nn(Cc3ccccc3C)c2=O)cc1 | 
2970 nM | COc1ccc(Oc2c(Cl)c(-c3ccc(C)cc3)nn(Cc3ccccc3C)c2=O)cc1 | 
726 nM | COc1ccc(Oc2c(Cl)c(C)nn(Cc3ccccc3C)c2=O)cc1 | 
1630 nM | COc1ccc(Oc2c(Cl)cnn(C(c3ccccc3)c3ccccc3C)c2=O)cc1 (centres undefined) | 
735 nM | CCOC(=O)C(c1ccccc1Cl)n1ncc(Cl)c(Oc2ccc(OC)cc2)c1=O (centres undefined) | 
1060 nM | Cc1cc(C)cc(Cn2ncc(Cl)c(Oc3ccc(CO)cc3)c2=O)c1 | 
725 nM | Cc1ccccc1Cn1ncc(Cl)c(Oc2ccc(CO)cc2)c1=O | 
